Results on four compounds are retold here after publication PMC9551036, “A selective and orally bioavailable VHL-recruiting PROTAC achieves SMARCA2 degradation in vivo” (Nature Communications, 2022).

In data set [1] the test system is VCB: PROTAC: SMARCA4^BD ternary complex. The experiment in a line: TR-FRET ternary complex affinity and cooperativity, SMARCA4. Format: binding, human. As to conditions: ratio TR-FRET EC50 / TR-FRET EC50 +VCB measured in the same run, SMARCA4BD. Background: In TR-FRET formats the signal depends on donor and acceptor labels being close together.
Data set [2] can be described thus: Microsomal stability. Format: in vitro ADME. As to conditions: for Mic. Stab. Human / Mic. Stab. Human QH: human liver microsomes; for Mic. Stab. Mouse / Mic. Stab. Mouse QH: mouse liver microsomes; for Mic. Stab. Rat / Mic. Stab. Rat QH: rat liver microsomes. The method, then: […] Reactions were terminated by addition of acetonitrile and precipitates separated by centrifugation. Compound concentrations in supernatants were measured by HPLC-MS/MS and clearance was calculated from compound half-lives using the well-stirred liver model.
(Liver microsomes are a subcellular fraction often used to study metabolism.)

The subject of data set [3] is Caco-2 cell monolayer. The data set is described as follows: Bidirectional permeability measurement in Caco-2 cells. The format is in vitro ADME. The gist of the method:
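Compound quantified by LC-MS/MS in samples taken over up to 2 h across 14–21-day Caco-2 monolayers, after 24 h preincubation with 1 µM compound. Runs done without and with 5 µM zosuquidar to probe P-gp. Efflux ratio is the quotient of duplicate-mean Papp,BA over Papp,AB.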
In general terms: Caco-2 monolayers are a common model of the intestinal barrier.

Data set [4] addresses T1, SMARCA2^BD (Homo sapiens, UniProt P51531).
T1 construct: P51531-2, residues 1373-1493 with additional N-terminal SM residues; GST (TEV site) (N, cleaved yes); made in house; host or cells: Escherichia coli BL21(DE3)
The data set is described as follows: SPR binding to immobilised SMARCA2 bromodomain. Particulars: SPR, read-out: SMARCA2 KD.

Where “and” joins values, the source holds several entries; their conditions need not be identical. Equal values may be shown once. Read-outs that look alike come from different tables or passages of the source.

A word on the Kd: it is the constant that tells how readily two partners part at equilibrium.

T1 sequence (P51531 1373-1493 isoform P51531-2): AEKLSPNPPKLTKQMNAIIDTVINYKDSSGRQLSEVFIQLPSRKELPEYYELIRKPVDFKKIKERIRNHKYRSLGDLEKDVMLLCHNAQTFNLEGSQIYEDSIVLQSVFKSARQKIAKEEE

For `Cc1ncsc1-c1ccc([C@H](COC(C)CN2CCC(c3ccc4c(c3)n(C3CCCC3)c3nc(=O)c5c(Br)cccc5n43)CC2)NC(=O)[C@@H]2C[C@@H](O)CN2C(=O)[C@@H](NC(=O)C2(N(C)C)CC2)C(C)(C)C)cc1` (stereo partly drawn) [compound 10], in data set [1], the “cooperativity α (SMARCA4BD)” value is on record as 2.6 ± 0.8. Further, in data set [2], the “Mic. Stab. Human” value is on record as 86 % QH; the “Mic. Stab. Human QH” value was determined as 85.500%; the “Mic. Stab. Mouse” value worked out at 68 ± 2 % QH; the “Mic. Stab. Mouse QH” value is 66.900% and 69.700%. Besides, in data set [2], the “Mic. Stab. Rat” value was found to be 51 ± 2 % QH; the “Mic. Stab. Rat QH” value was 49.700% and 52.900%. Further, in data set [3] (Caco-2), the “Caco-2 Efflux ratio” value came out at 5 and the “Caco-2 Pab” value was 6 10-6 cm/s. Moreover, the “Caco-2 Pba” value in data set [3] (Caco-2, b to a) came out at 21 ×10⁻⁶ cm/s. The “Modified Caco-2 Efflux ratio” value in data set [3] (Modified Caco-2) stood at 36. Also, the “Modified Caco-2 Pba” value in data set [3] (Modified Caco-2, b to a) is 99 ×10⁻⁶ cm/s and 88 ×10⁻⁶ cm/s. In addition, the Kd in data set [4] (SMARCA2BD, mean ± SD) stood at 0.222 ± 0.006 µM. Besides, the Kd in data set [4] (individual replicates) was 0.228 µM and 0.218 µM and 0.219 µM.

On to `Cc1ncsc1-c1ccc([C@H](CCCCN2CCC(c3ccc4c(c3)n(C3CCCC3)c3nc(=O)c5c(Br)cccc5n43)CC2)NC(=O)[C@@H]2C[C@@H](O)CN2C(=O)[C@@H](NC(=O)C2(F)CC2)C(C)(C)C)cc1` [compound 25], for which the “cooperativity α (SMARCA4BD)” value in data set [1] was found to be 2.3 ± 0.4. In addition, in data set [2], the “Mic. Stab. Human” value was 25 % QH, the “Mic. Stab. Human QH” value is 24.800%, the “Mic. Stab. Mouse” value is less than 24 % QH and the “Mic. Stab. Mouse QH” value is listed as less than 24.200%. Moreover, in data set [2], the “Mic. Stab. Rat” value was less than 23 % QH and the “Mic. Stab. Rat QH” value was less than 23.100%. For the same compound, in data set [3] (Caco-2), the “Caco-2 Pab” value is <4 10-6 cm/s. The “Caco-2 Pab” value in data set [3] (Caco-2, a to b) was less than 4.3e-06 cm/s. Moreover, the Kd in data set [4] (SMARCA2BD, mean ± SD) turned out to be 0.093 ± 0.003 µM. Also, the Kd in data set [4] (individual replicates) was 0.0954 µM and 0.0904 µM and 0.094 µM.

For the compound `Cc1ncsc1-c1ccc([C@H](COC(C)(C)CN2CCC(c3ccc4c(c3)n(C3CCCC3)c3nc(=O)c5c(Br)cccc5n43)CC2)NC(=O)[C@@H]2C[C@@H](O)CN2C(=O)[C@@H](NC(=O)C2(F)CC2)C(C)(C)C)cc1` [compound 28], the “cooperativity α (SMARCA4BD)” value in data set [1] is 3.2 ± 0.7. In data set [2], the “Mic. Stab. Human” value is 57 ± 4 % QH; the “Mic. Stab. Human QH” value is 51.200% and 55.600% and 59.900% and 60.900%; the “Mic. Stab. Mouse” value was less than 24 % QH; the “Mic. Stab. Mouse QH” value was < 24.200% and 25.800%. For the same compound, in data set [2], the “Mic. Stab. Rat” value is on record as less than 23 % QH; the “Mic. Stab. Rat QH” value was < 23.100% and 29.700%. The “Caco-2 Pab” value in data set [3] (Caco-2) is 5 ± 2 10-6 cm/s. Besides, in data set [3] (Modified Caco-2), the “Modified Caco-2 Efflux ratio” value was 37.037 and >37; the “Modified Caco-2 Pab” value was <7 10-6 cm/s. Besides, the “Modified Caco-2 Pab + PGPi (Zosuquidar)” value in data set [3] (Modified Caco-2, a to b, + PGPi (Zosuquidar)) was 11 ×10⁻⁶ cm/s and 13 ×10⁻⁶ cm/s. Further, the “Modified Caco-2 Pba + PGPi (Zosuquidar)” value in data set [3] (Modified Caco-2, b to a, + PGPi (Zosuquidar)) was 14 ×10⁻⁶ cm/s. For the same compound, in data set [4] (SMARCA2BD, mean ± SD), the Kd was found to be 0.196 ± 0.003 µM. In data set [4] (individual replicates), the dissociation constant (Kd) is 0.199 µM and 0.193 µM and 0.195 µM.

For the compound `Cc1ncsc1-c1ccc(CNC(=O)[C@@H]2C[C@@H](O)CN2C(=O)[C@@H](NC(=O)C2(F)CC2)C(C)(C)C)c(OCCCCN2CCC(c3ccc4c(c3)n(C3CCCC3)c3nc(=O)c5c(Br)cccc5n43)CC2)c1` [compound 23], in data set [1], the “cooperativity α (SMARCA4BD)” value amounted to 0.9 ± 0.1. For the same compound, in data set [2], the “Mic. Stab. Human” value is 78 % QH, the “Mic. Stab. Human QH” value is reported as 78.440%, the “Mic. Stab. Mouse” value is given as 42 % QH and the “Mic. Stab. Mouse QH” value is 42.090%. Also, in data set [2], the “Mic. Stab. Rat” value was less than 23 % QH and the “Mic. Stab. Rat QH” value was less than 23.080%. Also, in data set [3] (Caco-2), the “Caco-2 Efflux ratio” value is 26.136 and 26; the “Caco-2 Pab” value was 0.4 10-6 cm/s. Also, the “Caco-2 Pab” value in data set [3] (Caco-2, a to b) is 4.01e-07 cm/s. For the same compound, in data set [4] (SMARCA2BD, mean ± SD), the equilibrium dissociation constant (Kd) came to 0.094 ± 0.011 µM. Further, in data set [4] (individual replicates), the dissociation constant Kd is 0.102 µM and 0.0813 µM and 0.0983 µM.
